Results reported in paper PMC5850045 (ERJ Open Research, 2018).
Like-named read-outs stand apart in the source and are kept apart here.

How the values were obtained:
α1B-adrenergic receptor = biological target: T1, α1B-adrenergic receptor (Homo sapiens, UniProt P35368); test: Secondary radioligand binding assay
T1 sequence (P35368 1-520): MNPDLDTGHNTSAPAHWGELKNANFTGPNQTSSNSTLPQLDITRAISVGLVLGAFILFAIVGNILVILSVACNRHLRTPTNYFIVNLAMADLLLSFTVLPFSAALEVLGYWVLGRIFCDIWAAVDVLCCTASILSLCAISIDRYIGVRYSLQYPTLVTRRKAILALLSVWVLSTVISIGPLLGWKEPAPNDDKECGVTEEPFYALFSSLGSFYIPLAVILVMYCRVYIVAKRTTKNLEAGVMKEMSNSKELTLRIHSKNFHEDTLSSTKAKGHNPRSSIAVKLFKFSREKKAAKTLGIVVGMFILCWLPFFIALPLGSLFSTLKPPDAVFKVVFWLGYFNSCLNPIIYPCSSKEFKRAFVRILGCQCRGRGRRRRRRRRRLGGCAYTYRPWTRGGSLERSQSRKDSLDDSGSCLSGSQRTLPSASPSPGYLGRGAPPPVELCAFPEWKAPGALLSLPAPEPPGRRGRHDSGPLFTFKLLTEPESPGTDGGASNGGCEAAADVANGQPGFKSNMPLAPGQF

α1D-adrenergic receptor = biological target: T2, α1D-adrenergic receptor (Homo sapiens, UniProt P25100); test: Secondary radioligand binding assay
T2 sequence (P25100 1-572): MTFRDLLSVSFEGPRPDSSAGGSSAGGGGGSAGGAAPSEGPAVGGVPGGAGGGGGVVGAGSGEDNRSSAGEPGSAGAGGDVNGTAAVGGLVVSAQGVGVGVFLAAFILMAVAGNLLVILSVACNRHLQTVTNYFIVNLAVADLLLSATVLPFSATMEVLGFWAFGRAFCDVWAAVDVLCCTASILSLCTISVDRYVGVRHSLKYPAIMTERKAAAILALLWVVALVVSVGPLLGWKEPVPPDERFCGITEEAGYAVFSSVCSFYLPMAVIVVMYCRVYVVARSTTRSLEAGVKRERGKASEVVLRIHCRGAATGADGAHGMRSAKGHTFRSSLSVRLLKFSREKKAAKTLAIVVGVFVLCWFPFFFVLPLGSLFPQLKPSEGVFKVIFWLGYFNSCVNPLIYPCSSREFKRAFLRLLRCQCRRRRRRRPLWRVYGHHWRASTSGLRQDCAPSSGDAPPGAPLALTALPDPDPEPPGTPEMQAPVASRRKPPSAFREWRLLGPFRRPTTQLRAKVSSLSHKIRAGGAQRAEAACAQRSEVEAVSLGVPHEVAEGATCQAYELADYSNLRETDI

histamine H1 receptor = histamine H1 receptor (Homo sapiens, UniProt P35367); test: Primary radioligand binding screen; conditions: 10 µM, n = 4
α1A-adrenergic receptor [1] = biological target: T3, α1A-adrenergic receptor (Homo sapiens, UniProt P35348); test: Secondary radioligand binding assay
T3 sequence (P35348 1-466): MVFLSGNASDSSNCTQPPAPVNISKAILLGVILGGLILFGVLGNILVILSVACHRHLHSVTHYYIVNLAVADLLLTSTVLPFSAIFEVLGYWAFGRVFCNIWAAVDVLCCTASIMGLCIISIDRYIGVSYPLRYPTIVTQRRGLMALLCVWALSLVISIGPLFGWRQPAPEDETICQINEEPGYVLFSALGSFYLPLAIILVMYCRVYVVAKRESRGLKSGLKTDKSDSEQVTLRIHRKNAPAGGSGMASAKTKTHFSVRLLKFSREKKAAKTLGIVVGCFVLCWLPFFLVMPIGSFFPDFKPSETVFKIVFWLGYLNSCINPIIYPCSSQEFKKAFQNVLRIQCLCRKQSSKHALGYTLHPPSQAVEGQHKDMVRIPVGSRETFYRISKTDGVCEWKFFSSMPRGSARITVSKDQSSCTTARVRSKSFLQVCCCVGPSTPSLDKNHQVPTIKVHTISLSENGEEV

muscarinic M3 receptor = muscarinic M3 receptor (Homo sapiens, UniProt P20309); format: binding
serotonin transporter [2] = biological target: T4, serotonin transporter (Homo sapiens, UniProt P31645); test: Secondary radioligand binding assay; conditions: low-affinity binding
5-HT2C receptor [3] = biological target: T5, 5-HT2C receptor (Homo sapiens, UniProt P28335); test: Primary radioligand binding screen; conditions: 10 µM, n = 4
T5 sequence (P28335 33-458): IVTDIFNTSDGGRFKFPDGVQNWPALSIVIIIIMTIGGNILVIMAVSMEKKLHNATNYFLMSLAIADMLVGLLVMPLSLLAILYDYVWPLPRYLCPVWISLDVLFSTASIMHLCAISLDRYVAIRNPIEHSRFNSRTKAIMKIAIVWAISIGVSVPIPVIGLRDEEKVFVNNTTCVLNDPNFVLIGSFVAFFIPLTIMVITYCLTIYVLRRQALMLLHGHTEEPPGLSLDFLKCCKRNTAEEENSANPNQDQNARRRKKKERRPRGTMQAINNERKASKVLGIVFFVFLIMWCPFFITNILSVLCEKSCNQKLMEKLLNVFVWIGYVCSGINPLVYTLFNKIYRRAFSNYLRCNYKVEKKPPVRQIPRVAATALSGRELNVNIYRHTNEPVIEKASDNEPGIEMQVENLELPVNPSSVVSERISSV

α1A-adrenergic receptor [4] = biological target: T3, α1A-adrenergic receptor; test: Primary radioligand binding screen; conditions: 10 µM, n = 4
serotonin transporter [5] = biological target: T4, serotonin transporter; test: Primary radioligand binding screen; conditions: 10 µM, n = 4
rat colon = test: Ex vivo rat colon force contraction experiment; conditions: for contractile response in the colon: colon pre-treated with β3 receptor selective antagonist SR59230A; for effects on colonic contractions: ex vivo rat colon preparation
5-HT2C receptor [6] = biological target: T5, 5-HT2C receptor; test: Secondary radioligand binding assay
β3-adrenergic receptor [7] = biological target: T6, β3-adrenergic receptor (Homo sapiens, UniProt P13945); test: Secondary radioligand binding assay
δ-opioid receptor [8] = biological target: T7, δ-opioid receptor (Homo sapiens, UniProt P41143); test: Secondary radioligand binding assay
β3-adrenergic receptor [9] = biological target: T6, β3-adrenergic receptor; test: Primary radioligand binding screen; conditions: 10 µM, n = 4
dopamine transporter = dopamine transporter (Homo sapiens, UniProt Q01959); test: Primary radioligand binding screen; conditions: 10 µM, n = 4
δ-opioid receptor [10] = biological target: T7, δ-opioid receptor; test: Primary radioligand binding screen; conditions: 10 µM, n = 4

T4 sequence (P31645 whole entry): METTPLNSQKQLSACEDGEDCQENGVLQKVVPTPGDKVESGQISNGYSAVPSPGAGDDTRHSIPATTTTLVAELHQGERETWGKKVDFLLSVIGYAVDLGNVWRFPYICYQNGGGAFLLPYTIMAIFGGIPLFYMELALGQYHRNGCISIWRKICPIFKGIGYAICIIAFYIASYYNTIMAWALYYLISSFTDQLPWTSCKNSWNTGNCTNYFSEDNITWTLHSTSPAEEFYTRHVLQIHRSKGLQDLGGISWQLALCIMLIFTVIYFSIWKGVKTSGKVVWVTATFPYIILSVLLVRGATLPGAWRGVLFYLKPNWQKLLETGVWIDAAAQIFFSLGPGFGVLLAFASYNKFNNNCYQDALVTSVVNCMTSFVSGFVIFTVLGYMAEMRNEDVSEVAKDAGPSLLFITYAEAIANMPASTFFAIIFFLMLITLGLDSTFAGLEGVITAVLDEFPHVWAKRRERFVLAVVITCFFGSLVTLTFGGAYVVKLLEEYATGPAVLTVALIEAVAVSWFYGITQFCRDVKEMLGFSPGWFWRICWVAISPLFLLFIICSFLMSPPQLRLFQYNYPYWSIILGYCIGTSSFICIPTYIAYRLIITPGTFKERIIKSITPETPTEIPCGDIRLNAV
Sequence of muscarinic M3 receptor (P20309 whole entry): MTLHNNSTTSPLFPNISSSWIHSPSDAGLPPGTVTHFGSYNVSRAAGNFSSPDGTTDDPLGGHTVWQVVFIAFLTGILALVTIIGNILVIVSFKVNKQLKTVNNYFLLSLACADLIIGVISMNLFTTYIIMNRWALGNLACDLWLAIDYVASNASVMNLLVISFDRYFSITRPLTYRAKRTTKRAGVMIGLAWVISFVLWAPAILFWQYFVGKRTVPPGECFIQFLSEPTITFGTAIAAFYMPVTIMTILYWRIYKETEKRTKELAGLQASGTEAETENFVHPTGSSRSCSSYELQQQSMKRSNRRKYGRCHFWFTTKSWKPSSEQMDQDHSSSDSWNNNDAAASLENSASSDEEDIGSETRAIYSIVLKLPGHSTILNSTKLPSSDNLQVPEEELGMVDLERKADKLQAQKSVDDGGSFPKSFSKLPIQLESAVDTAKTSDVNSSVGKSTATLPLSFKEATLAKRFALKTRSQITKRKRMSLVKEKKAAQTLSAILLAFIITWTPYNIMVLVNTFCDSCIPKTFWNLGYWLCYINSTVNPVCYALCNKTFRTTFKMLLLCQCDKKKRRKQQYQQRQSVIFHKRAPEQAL
Sequence of histamine H1 receptor (P35367 whole entry, species assumed): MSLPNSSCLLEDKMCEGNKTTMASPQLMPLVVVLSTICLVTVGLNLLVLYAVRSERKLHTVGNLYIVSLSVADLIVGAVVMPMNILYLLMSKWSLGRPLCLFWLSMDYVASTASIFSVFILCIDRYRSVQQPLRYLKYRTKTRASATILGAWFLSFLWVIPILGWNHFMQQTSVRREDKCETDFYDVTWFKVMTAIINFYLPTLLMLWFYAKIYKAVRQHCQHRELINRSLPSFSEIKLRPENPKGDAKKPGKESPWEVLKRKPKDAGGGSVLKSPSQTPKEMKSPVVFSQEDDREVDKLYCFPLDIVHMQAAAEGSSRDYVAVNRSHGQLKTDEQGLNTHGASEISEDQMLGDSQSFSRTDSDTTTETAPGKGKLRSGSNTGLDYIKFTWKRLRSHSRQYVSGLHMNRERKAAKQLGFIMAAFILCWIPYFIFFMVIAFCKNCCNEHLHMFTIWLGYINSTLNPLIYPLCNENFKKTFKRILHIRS
T7 sequence (P41143 whole entry): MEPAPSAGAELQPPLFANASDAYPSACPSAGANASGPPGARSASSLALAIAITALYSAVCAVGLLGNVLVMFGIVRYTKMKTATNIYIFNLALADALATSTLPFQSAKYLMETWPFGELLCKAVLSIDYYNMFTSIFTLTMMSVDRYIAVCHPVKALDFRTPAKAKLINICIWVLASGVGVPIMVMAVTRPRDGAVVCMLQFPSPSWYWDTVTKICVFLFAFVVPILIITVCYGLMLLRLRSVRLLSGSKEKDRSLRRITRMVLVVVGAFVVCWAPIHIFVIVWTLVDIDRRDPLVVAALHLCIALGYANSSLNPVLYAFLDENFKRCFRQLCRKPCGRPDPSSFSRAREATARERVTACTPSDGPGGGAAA
T6 sequence (P13945 whole entry, species assumed): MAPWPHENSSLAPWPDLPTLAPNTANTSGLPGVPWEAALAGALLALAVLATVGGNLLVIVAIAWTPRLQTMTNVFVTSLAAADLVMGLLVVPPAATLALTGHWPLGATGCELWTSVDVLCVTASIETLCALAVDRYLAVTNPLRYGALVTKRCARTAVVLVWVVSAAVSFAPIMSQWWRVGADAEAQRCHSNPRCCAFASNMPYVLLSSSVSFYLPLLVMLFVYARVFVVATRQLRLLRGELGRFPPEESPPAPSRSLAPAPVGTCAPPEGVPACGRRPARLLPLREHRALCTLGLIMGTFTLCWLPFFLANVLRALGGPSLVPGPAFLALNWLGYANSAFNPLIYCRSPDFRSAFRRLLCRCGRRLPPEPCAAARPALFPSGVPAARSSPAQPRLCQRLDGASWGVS
Sequence of dopamine transporter (Q01959 whole entry): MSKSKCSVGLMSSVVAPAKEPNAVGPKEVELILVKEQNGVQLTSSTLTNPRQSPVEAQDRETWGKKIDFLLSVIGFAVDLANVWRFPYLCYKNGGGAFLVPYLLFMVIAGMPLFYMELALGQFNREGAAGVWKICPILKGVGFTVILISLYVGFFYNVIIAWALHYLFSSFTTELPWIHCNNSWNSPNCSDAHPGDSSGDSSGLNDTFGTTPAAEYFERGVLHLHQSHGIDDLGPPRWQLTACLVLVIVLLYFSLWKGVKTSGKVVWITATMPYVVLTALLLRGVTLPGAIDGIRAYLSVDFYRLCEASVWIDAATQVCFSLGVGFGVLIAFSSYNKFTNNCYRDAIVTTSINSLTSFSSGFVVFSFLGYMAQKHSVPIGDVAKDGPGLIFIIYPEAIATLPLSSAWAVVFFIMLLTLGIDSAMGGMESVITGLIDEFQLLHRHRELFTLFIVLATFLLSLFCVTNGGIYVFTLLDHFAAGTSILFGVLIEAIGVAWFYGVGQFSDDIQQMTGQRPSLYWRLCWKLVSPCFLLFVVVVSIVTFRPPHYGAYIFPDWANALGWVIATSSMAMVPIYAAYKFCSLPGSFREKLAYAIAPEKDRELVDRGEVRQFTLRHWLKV

SMILES | Ki (α1D-adrenergic receptor) [µM] | % displacement (histamine H1 receptor) [%] | Ki (α1A-adrenergic receptor [1]; low-affinity binding) [µM] | Ki (serotonin transporter [2]) [µM] | % displacement (5-HT2C receptor [3]) [%] | % displacement (α1A-adrenergic receptor [4]) [%] | % displacement (serotonin transporter [5]) [%] | contractile response in the colon (rat colon) | effects on colonic contractions (rat colon) | further results
Cc1ccc(NC(=O)C2(c3ccc4c(c3)OC(F)(F)O4)CC2)nc1-c1cccc(C(=O)O)c1 [lumacaftor] | 4.84 | 71.2 | – | – | – | – | – | – | – | Ki (α1B-adrenergic receptor): > 10 µM
CC(C)(C)c1cc(C(C)(C)CO)c(O)cc1NC(=O)c1c[nH]c2ccccc2c1=O [iva-M1, hydroxymethylivacaftor] | – | – | > 10 | > 10 | 78.2 | 79.9 | 56.7 | – | – | Ki (muscarinic M3 receptor): 1.83 µM; pKi (muscarinic M3 receptor): 5.70±0.10
CC(C)(C)c1cc(C(C)(C)C(=O)O)c(O)cc1NC(=O)c1c[nH]c2ccccc2c1=O [iva-M6, ivacaftorcarboxylate] | – | – | > 10 | > 10 | – | 92.3 | 50.9 | significant contractile response | no significant effects | –
CC(C)(CO)c1cc2cc(NC(=O)C3(c4ccc5c(c4)OC(F)(F)O5)CC3)c(F)cc2n1C[C@@H](O)CO [tezacaftor] | 5.45 | 53.3 | – | – | – | – | – | – | – | –
CC(C)(C)c1cc(C(C)(C)C)c(NC(=O)c2c[nH]c3ccccc3c2=O)cc1O [ivacaftor] | – | – | – | – | 84.8 | 58.3 | 61.1 | significant contractile response | no significant effects | Ki (5-HT2C receptor [6]): 0.866 µM; Ki (α1A-adrenergic receptor [1]): > 10 µM; Ki (β3-adrenergic receptor [7]): 1.93 µM; Ki (δ-opioid receptor [8]): 2.59 µM; Ki (serotonin transporter [2]; Ki): > 10 µM; % displacement (β3-adrenergic receptor [9]): 75.9%; % displacement (dopamine transporter): 55.2%; % displacement (δ-opioid receptor [10]): 50.8%
